Measurements taken from BindingDB's records for doi:10.1021/jm00001a017 (Bristol-Myers Squibb Pharmaceutical Research Institute, 1995).

The molecules below were run against Voltage-dependent L-type calcium channel (Cavia porcellus) (assay: Displacement of [3H]nitrendipine from dihydropyridine receptor of guinea pig myocardial membranes).

SMILES | Kd
CSC1=NC(C)=C2C(=O)OCCCCCSc3c(cccc3[N+](=O)[O-])C2N1 (stereo unspecified) [4-Methyl-2-methylsulfanyl-13-nitro-3,8,9,10,11,16b-hexahydro-7H-6-oxa-12-thia-1,3-diaza-dibenzo[a,c]cyclododecen-5-one] | 0.005 µM
CSC1=NC(c2cccc([N+](=O)[O-])c2)C2=C(COC2=O)N1 (stereo unspecified) [2-Methylsulfanyl-4-(3-nitro-phenyl)-4,7-dihydro-1H-furo[3,4-d]pyrimidin-5-one] | 36.9 µM
CCCCSc1ccccc1C1N=C(SC)Nc2coc(O)c21 (stereo unspecified) [4-(2-Butylsulfanyl-phenyl)-2-methylsulfanyl-4,7-dihydro-1H-furo[3,4-d]pyrimidin-5-one] | > 50 µM
COC(=O)C1C(C)=NC(SC)=NC1c1cccc([N+](=O)[O-])c1 (stereo unspecified) [6-Methyl-2-methylsulfanyl-4-(3-nitro-phenyl)-1,4-dihydro-pyrimidine-5-carboxylic acid methyl ester] | 0.48 µM
COC(=O)C1C(C)=NC(SC)=NC1c1cc([N+](=O)[O-])ccc1SC (stereo unspecified) [6-Methyl-2-methylsulfanyl-4-(2-methylsulfanyl-5-nitro-phenyl)-1,4-dihydro-pyrimidine-5-carboxylic acid methyl ester] | 2.7 µM
CSC1=NC2C(=C(C)N1)C(=O)OCCCCCSc1ccc([N+](=O)[O-])cc12 (stereo unspecified) [4-Methyl-2-methylsulfanyl-15-nitro-3,8,9,10,11,16b-hexahydro-7H-6-oxa-12-thia-1,3-diaza-dibenzo[a,c]cyclododecen-5-one] | 0.873 µM
COC(=O)C1C(C)=NC(SC)=NC1c1ccccc1SC (stereo unspecified) [6-Methyl-2-methylsulfanyl-4-(2-methylsulfanyl-phenyl)-1,4-dihydro-pyrimidine-5-carboxylic acid methyl ester] | 1.52 µM
CSC1=NC2=C(C(=O)OC2)C(c2cccc([N+](=O)[O-])c2SC)N1 (stereo unspecified) [2-Methylsulfanyl-4-(2-methylsulfanyl-3-nitro-phenyl)-4,7-dihydro-1H-furo[3,4-d]pyrimidin-5-one] | 13.7 µM
CSC1=NC2c3ccccc3SCCCCCOC(=O)C2C(C)=N1 (stereo unspecified) [4-Methyl-2-methylsulfanyl-3,8,9,10,11,16b-hexahydro-7H-6-oxa-12-thia-1,3-diaza-dibenzo[a,c]cyclododecen-5-one] | 0.018 µM
CSC1=NC(c2ccccc2SC)c2c(coc2O)N1 (stereo unspecified) [2-Methylsulfanyl-4-(2-methylsulfanyl-phenyl)-4,7-dihydro-1H-furo[3,4-d]pyrimidin-5-one] | 45.2 µM
CSC1=NC(c2cc([N+](=O)[O-])ccc2SC)C2=C(COC2=O)N1 (stereo unspecified) [2-Methylsulfanyl-4-(2-methylsulfanyl-5-nitro-phenyl)-4,7-dihydro-1H-furo[3,4-d]pyrimidin-5-one] | > 50 µM
